Molecular target: mGluR4 (Homo sapiens, UniProt Q14833)
Assay: mGlu4 PAM potentiation assay, CHO cells transfected with human mGluR4, Ca2+-sensitive dye fluorescence
Assay type: cell-based
Experimental: The disclosed compounds and compositions can be evaluated for their ability to act as a potentiator of metabotropic glutamate receptor activity, in particular mGluR4 activity, by any suitable known methodology known in the art. For example, Chinese Hamster Ovary (CHO) cells transfected with human mGluR4 or HEK cells co-transfected with rat mGluR4 and the G-protein regulated Inwardly Rectifying Potassium channel (GIRK) were plated in clear bottom, assay plates for assay in a Hamamatsu FDSS Fluorometric Plate Reader. The cells were loaded with either a Ca2+-sensitive fluorescent dye or the thallium responsive dye and the plates were washed and placed into a suitable kinetic plate reader. For human mGluR4 assays, a fluorescence baseline was established for 3-5 seconds, the disclosed compounds were then added to the cells, and the response in cells was measured. Approximately two and a half minutes later, a concentration of mGluR4 orthosteric agonist (e.g. glutamate, L-AP4, or L-SOP) eliciting approximately 20% (EC20) of the maximal agonist response was added to the cells, and the response was measured. Two minutes later, a concentration of mGluR4 agonist (e.g. glutamate, L-AP4, or L-SOP) eliciting 80% (EC80) of the maximal agonist response was added to the cells, and the response was measured. For rat mGluR4/GIRK experiments, a baseline was established for approximately five seconds, disclosed compounds were added, and either an EC20 or EC80 concentration of agonist was added approximately two and one half minutes later. Potentiation or antagonism of the agonist response of mGluR4 by the disclosed compounds was observed as an increase or decrease in response to the EC20 concentration of agonist in the presence of compound compared to the response to agonist in the absence of compound. Similarly, potentiation or antagonism of the agonist response of mGluR4 by the disclosed Compounds was observed as an increase or decrease in response to the EC80 concentration of agonist in the presence of compound compared to the response to agonist in the absence of compound.
The above described assay operated in two modes. In the first mode, a range of concentrations of the disclosed compounds are added to cells, followed by a single fixed concentration of agonist. If the compound acts as a potentiatior, an EC50 value for potentiation and a maximum extent of potentiation by the compound at this concentration of agonist is determined by non-linear curve fitting. If the compound acts as an antagonist, an IC50 value is determined by non-linear curve fitting. In the second mode, several fixed concentrations of the disclosed compounds are added to various wells on a plate, followed by a range in concentrations of agonist for each concentration of disclosed compound. The EC50 values for the agonist at each concentration of compound are determined by non-linear curve fitting. A decrease in the EC50 value of the agonist with increasing concentrations of the sample compound (a leftward shift of the agonist concentration-response curve) is an indication of the degree of mGluR4 potentiation at a given concentration of the sample compound. A decrease in the maximal response of the agonist with increasing concentrations of the sample compounds, with or without a rightward shift in agonist potency, is an indication of the degree of antagonism at mGluR4. The second mode also indicates whether the sample compounds also affect the maximum response to mGluR4 to agonists.

mGluR4, sequence (Q14833 33-912 limits assumed): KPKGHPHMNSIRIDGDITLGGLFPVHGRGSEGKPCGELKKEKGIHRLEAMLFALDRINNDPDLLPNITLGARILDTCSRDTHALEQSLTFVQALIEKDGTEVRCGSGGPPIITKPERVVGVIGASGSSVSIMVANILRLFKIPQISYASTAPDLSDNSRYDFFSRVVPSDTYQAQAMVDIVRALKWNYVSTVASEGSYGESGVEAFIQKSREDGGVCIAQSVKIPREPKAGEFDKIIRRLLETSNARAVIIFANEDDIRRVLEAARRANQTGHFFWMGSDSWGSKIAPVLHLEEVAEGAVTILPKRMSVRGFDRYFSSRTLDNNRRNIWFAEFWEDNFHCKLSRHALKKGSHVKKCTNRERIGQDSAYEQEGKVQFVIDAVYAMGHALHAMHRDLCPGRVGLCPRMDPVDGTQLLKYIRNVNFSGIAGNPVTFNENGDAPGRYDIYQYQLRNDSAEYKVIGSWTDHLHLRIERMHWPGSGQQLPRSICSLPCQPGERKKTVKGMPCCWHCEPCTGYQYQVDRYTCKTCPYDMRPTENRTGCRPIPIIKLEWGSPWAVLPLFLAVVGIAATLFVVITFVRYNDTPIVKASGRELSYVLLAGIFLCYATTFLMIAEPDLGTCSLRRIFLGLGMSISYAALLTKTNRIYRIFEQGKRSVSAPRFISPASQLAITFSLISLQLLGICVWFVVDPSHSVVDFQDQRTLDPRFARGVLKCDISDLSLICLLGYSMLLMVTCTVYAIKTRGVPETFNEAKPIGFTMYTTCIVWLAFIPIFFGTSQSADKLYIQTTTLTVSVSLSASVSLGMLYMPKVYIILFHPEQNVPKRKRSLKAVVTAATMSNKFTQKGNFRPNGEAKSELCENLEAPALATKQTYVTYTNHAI

| Compound | EC50 [nM] |
| --- | --- |
| CC(C)(C)OCCOc1nccc2cc(NC(=O)c3ccccn3)ccc12 [Compound 28] | 419 |
| CC1(C)CC(COc2nccc3cc(NC(=O)c4ccccn4)ccc23)CO1 (stereo not drawn) [Compound 48] | 452 |
| CO[C@H](C)COc1nccc2cc(NC(=O)c3ncccc3N)ccc12 [Compound 7] | 152 |
| O=C(Nc1ccc2c(OC3CCOCC3F)nccc2c1)c1ccccn1 (stereo not drawn) [Compound 40] | 183 |
| O=C(Nc1ccc2c(OCC3CCOC3)nccc2c1)c1cccc(Cl)n1 (stereo not drawn) [Compound 86] | 619 |
| CC1(C)CC(COc2nccc3cc(NC(=O)c4ncccc4N)ccc23)CCO1 (stereo not drawn) [Compound 35] | 227 |

Stronger by EC50, values ahead:

| EC50 [nM] | Compound |
| --- | --- |
| 59.5 | O=C(Nc1ccc2c(OCC3CCOC3)nccc2c1)c1ccccn1 (stereo not drawn) [Compound 15] |
| 114 | Nc1cccnc1C(=O)Nc1ccc2c(OC[C@@H]3CCOC3)nccc2c1 [Compound 61] |
| 135 | CC1CC(COc2nccc3cc(NC(=O)c4ncccc4N)ccc23)CCO1 (stereo not drawn) [Compound 38] |
